Consider four molecules from patent US20240343747A1, “Heteroaryl compounds as inhibitors of TYK2, composition and application thereof” (Accro Bioscience (HK) Limited, priority 2021, published 2024).

The structures appear in SMILES notation.

The target in one data set is TYK2 JH2 (Homo sapiens (Human), UniProt P29597). Description: Competitive binding assay (kinase-tagged phage, qPCR), TYK2 JH2. As for the experimental part: For most assays, kinase-tagged T7 phage strains were prepared in an E. coli host derived from the BL21 strain. E. coli were grown to log-phase and infected with T7 phage and incubated with shaking at 32° C. until lysis. The lysates were centrifuged and filtered to remove cell debris. The remaining kinases were produced in HEK-293 cells and subsequently tagged with DNA for qPCR detection. Streptavidin coated magnetic beads were treated with biotinylated small molecule ligands for 30 minutes at room temperature to generate affinity resins for kinase assays. The liganded beads were blocked with excess biotin and washed with blocking buffer (SeaBlock (Pierce), 1% BSA, 0.05% Tween 20, 1 mM DTT) to remove unbound ligand and to reduce non-specific binding. […] Test compounds were prepared as 111X stocks in 100% DMSO. Dissociation constants (Kds) were determined using an 11-point 3-fold compound dilution series with three DMSO control points. All compounds for Kd measurements are distributed by acoustic transfer (non-contact dispensing) in 100% DMSO. The compounds were then diluted directly into the assays such that the final concentration of DMSO was 0.9%. All reactions performed in polypropylene 384-well plate. Each was a final volume of 0.02 ml. The assay plates were incubated at room temperature with shaking for 1 hour and the affinity beads were washed with wash buffer (1×PBS, 0.05% Tween 20). The beads were then re-suspended in elution buffer (1×PBS, 0.05% Tween 20, 0.5 μM nonbiotinylated affinity ligand) and incubated at room temperature with shaking for 30 minutes. The kinase concentration in the eluates was measured by qPCR.
An 11-point 3-fold serial dilution of each test compound was prepared in 100% DMSO at 100× final test concentration and subsequently diluted to 1× in the assay (final DMSO concentration=1%). Most Kds were determined using a compound top concentration=30,000 nM. If the initial Kd determined was <0.5 nM (the lowest concentration tested), the measurement was repeated with a serial dilution starting at a lower top concentration.
Binding constants (Kds) were calculated with a standard dose-response curve using the Hill equation: […]
The Hill Slope was set to −1.
Curves were fitted using a non-linear least square fit with the Levenberg-Marquardt algorithm.
On the technique in general: In qPCR the cycle at which signal appears reflects the starting amount.

The target in a further data set is hERG channel (Homo sapiens (Human), UniProt Q12809). Description: cell-based. On the procedure:
Chinese hamster ovary (CHO) cell line, CHO-hERG cells were used in this study. CHO-hERG cells were derived from Sophion Biosciences Inc. (Ballerup, Denmark) in Suzhou, China. The cell reserve fluid is frozen in liquid nitrogen tanks. Each batch of stored cell fluid is tested for mycoplasma contamination. The cells were no longer used after 30 generations.
The whole cell patch clamp technique was used to record hERG current at room temperature. The patch-clamp amplifier outputs signals through […] conversion and 2.9 KHz low-pass filtering. Data records were collected by Patchmaster Pro software.
Cells were planted in a cell recording tank and placed on an inverted microscope platform. One cell in the recording tank was randomly selected for experiment. The perfusion system was fixed on an inverted microscope platform and cells were continuously irrigated with ECS.
Manual patch clamp recording microelectrode was prepared with capillary glass tube, which was filled with intracellular fluid. On the day of the patch clamp test, the electrodes were prepared using a borosilicate glass tube (GC150TF-10, Harvard Apparatus Co. UK). The resistance is between 2-5 MΩ after the electrode is filled with ICS.
The clamping voltage was −80 mV, and the first step was depolarized to +60 mV for 850 ms to open the hERG channel. The voltage is then set to −50 mV and maintained for 1275 ms, resulting in a rebound current or tail current, the peak of which is measured and used for analysis. Finally, the voltage is restored to the clamping voltage (−80 mV). During the test, the command voltage program was repeated every 15 s.
At the beginning of recording the perfusion of the solvent control working solution, the test substance/positive control working solution to be tested can be poured after monitoring the tail current peak until more than 3 scanning curves are stable, until the inhibition of the test substance/positive control working solution to the hERG current peak reaches a stable state. Generally, the most recent three consecutive peak values of the current curve basically coincide as a criterion to judge whether the state is stable. After reaching a stable state, continue to pour one concentration of the test sample. One or more test subjects/positive controls, or multiple concentrations of the same drug, can be tested on a cell, and the different test subjects/positive controls need to be rinsed with a solvent control working fluid until the hERG current returns to more than 80% of its pre-drug level.
The concentration of positive control cisapride was 0.1 μM, and two cells were repeated.

Data set [1] in a line: Pharmacokinetic evaluation in rats. It is filed as in vivo, rat. Conditions: for AUC / Vd / clearance / half-life / Cmax / Tmax: male, plasma; for AUC / Vd / clearance / half-life / Cmax / Tmax / F: rat; for plasma exposure and bioavailability in rat (in words): conclusion from Table 10. As for the experimental part: The rat pharmacokinetic characteristics of compounds were tested by standard protocols. The candidate compounds were made into clear solution for single intravenous injection (i.v.) and suspension for oral administration (p.o.). Intravenous vehicle is 5% DMSO+10% Solutol+85% Saline. Of which adjusts pH to 3 for B37. While oral vehicle is 0.5% CMCNa for B2 and B22, 5% DMSO+10% Solutol+85% Saline, pH˜3 for B37, 5% DMSO+10% Solutol+85% Saline for B41. The experiment used 6 male rats and 3 rats for intravenous at a dose of 2 mg/kg. Plasma samples were collected at 0 h (before dosing) and 0.083 h, 0.25 h, 0.5 h, 1 h, 2 h, 4 h, 8 h, 24 h after dosing. 3 rats were orally administrated at a dose of 10 mg/kg. Plasma samples were collected at 0 h (before dosing) and 0.25 h, 0.5 h, 1 h, 2 h, 4 h, 6 h, 8 h, 24 h after dosing.
Blood samples were placed in tubes containing K2-EDTA and stored on ice until centrifuged. The blood samples were centrifuged at 6800 g for 6 minutes at 2-8° C. within 1 h after collected, and stored frozen at approximately −80° C.
The analytical results were confirmed using quality control samples for intra-assay variation. The accuracy of >66.7% of the quality control samples and 50% of all QC samples at each concentration level were between 80-120% of the known value(s).
Standard set of parameters including area under the curve (AUC(0-t) and AUC(0-∞)), elimination half-live (T1/2), maximum plasma concentration (Cmax), time to reach maximum plasma concentration (Tmax) were calculated using noncompartmental analysis modules in FDA certified pharmacokinetic program Phoenix WinNonlin 7.0 (Pharsight, USA) by the Study Director.

What is called Kd is the concentration at which binding is half-saturated. A lower Kd goes with tighter binding. In general, IC50 refers to the concentration that inhibits the measured activity by half. One may read the AUC as the area under the concentration-time curve, a measure of exposure. High values mean more exposure, low ones less exposure. The term Vd denotes the apparent volume that relates the amount in the body to the concentration in plasma or blood. High values mean extensive tissue distribution, low ones confinement near the circulation. The term clearance denotes the rate of elimination divided by the concentration. A low value points to a low capacity for elimination. Broadly, the half-life is the time in which the quantity being followed falls by half. Higher therefore signals slow decline. A word on the Cmax: it is the highest concentration seen after dosing. In general, Tmax refers to the time from dosing to the highest level.

Sequence of hERG channel (Q12809 whole entry): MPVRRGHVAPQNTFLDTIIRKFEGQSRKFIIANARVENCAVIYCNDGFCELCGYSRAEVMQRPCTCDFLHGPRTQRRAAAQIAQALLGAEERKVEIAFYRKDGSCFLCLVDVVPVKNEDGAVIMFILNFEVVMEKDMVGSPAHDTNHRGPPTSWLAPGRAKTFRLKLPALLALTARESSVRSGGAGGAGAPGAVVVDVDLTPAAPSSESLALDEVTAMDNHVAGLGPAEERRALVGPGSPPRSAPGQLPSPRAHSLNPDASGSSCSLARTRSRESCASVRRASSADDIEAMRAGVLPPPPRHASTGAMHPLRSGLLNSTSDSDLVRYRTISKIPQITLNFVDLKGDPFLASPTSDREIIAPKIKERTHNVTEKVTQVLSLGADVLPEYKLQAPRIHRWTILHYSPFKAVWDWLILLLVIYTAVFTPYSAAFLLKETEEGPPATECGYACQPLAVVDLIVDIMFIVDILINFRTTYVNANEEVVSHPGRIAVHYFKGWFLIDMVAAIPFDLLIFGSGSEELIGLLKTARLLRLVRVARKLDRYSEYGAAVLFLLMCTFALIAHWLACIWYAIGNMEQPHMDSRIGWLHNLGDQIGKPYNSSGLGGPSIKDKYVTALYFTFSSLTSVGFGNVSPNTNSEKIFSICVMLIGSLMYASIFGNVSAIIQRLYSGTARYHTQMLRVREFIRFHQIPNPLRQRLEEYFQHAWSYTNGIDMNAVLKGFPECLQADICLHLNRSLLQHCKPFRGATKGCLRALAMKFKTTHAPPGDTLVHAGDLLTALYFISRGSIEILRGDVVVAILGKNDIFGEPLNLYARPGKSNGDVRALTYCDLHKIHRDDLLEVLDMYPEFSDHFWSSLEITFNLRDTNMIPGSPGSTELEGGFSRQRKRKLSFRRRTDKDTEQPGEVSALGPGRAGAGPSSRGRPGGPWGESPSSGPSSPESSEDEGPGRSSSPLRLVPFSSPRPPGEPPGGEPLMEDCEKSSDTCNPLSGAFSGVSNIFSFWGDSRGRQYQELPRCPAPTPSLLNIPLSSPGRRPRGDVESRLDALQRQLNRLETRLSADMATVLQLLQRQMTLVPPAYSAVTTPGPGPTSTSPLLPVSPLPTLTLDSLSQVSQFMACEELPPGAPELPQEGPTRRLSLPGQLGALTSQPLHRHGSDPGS
Sequence of TYK2 JH2 (P29597 589-875): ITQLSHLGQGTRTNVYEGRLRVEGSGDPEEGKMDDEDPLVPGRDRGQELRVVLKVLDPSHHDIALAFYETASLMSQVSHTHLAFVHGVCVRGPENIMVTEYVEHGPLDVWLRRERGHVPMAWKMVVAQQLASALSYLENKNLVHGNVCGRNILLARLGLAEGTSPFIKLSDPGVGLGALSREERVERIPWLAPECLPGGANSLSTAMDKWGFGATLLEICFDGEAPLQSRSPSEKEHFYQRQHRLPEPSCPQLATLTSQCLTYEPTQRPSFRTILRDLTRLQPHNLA

On TYK2 JH2, `[2H]C([2H])([2H])n1nc(-c2cccc(Nc3cc(NC(=O)C4CC4)ncc3C(=O)CC)c2OC)cc1P(C)(C)=O` [Compound B22] came in with a Kd of 0.063 nM. For the same molecule, at hERG channel, the 50% inhibitory concentration (IC50) was above 30 µM and the “inhibition on hERG channel (in words)” value is given as “no inhibition”. In data set [1] (iv, i.v. 2 mg/kg), this molecule showed an area under the curve (AUC) of 2670 ng·h/mL, a volume of distribution (Vd) of 1.4 L/kg, a clearance of 12.7 mL/min/kg and a half-life of 78 min. For the same molecule, in data set [1] (po, p.o. 10 mg/kg), the area under the curve (AUC) worked out at 2280 ng·h/mL, the highest level (Cmax) was 694 ng/mL and the time of peak concentration (Tmax) was 1.83 h. Moreover, in data set [1] (p.o. 10 mg/kg), the F amounted to 17%.
On to `CCC(=O)c1cnc(NC(=O)C2CC2)cc1Nc1cccc(-c2cc(P(=O)(C3CC3)C3CC3)n(C)n2)c1OC` [Compound B37, N-(4-((3-(5-(dicyclopropylphosphoryl)-1-methyl-1H-pyrazol-3-yl)-2-methoxyphenyl)amino)-5-propionylpyridin-2-yl)cyclopropanecarboxamide], for which, at TYK2 JH2, the affinity, expressed as Kd, was 0.044 nM. Moreover, at hERG channel, the IC50 was above 30 µM and the “inhibition on hERG channel (in words)” value is “no inhibition”. Besides, the “plasma exposure and bioavailability in rat (in words)” value (shortened to “plasma exposure and bioavailability”) in data set [1] was “good plasma exposure and bioavailability”. In addition, in data set [1] (iv, i.v. 2 mg/kg), the exposure (AUC) was 3090 ng·h/mL, the distribution volume (Vd) came out at 0.9 L/kg, the clearance stood at 10.9 mL/min/kg and the half-life is 57.6 min. Further, in data set [1] (po, p.o. 10 mg/kg), the AUC turned out to be 9420 ng·h/mL, the highest concentration (Cmax) is 1890 ng/mL and the time to peak (Tmax) worked out at 2.05 h. Also, the F in data set [1] (p.o. 10 mg/kg) was found to be 61%.
For `CCC(=O)c1cnc(NC(=O)C2CC2)cc1Nc1cccc(-c2cc(P(C)(C)=O)n(C)n2)c1OC` [Compound B2, N-(4-((3-(5-(dimethylphosphoryl)-1-methyl-1H-pyrazol-3-yl)-2-methoxyphenyl)amino)-5-propionylpyridin-2-yl)cyclopropanecarboxamide], the affinity at TYK2 JH2, expressed as Kd, was 0.043 nM. Also, at hERG channel, the IC50 was above 30 µM and the “inhibition on hERG channel (in words)” value is given as “no inhibition”. The “plasma exposure and bioavailability” value in data set [1] was “good plasma exposure and bioavailability”. In data set [1] (iv, i.v. 2 mg/kg), this molecule showed an exposure (AUC) of 2430 ng·h/mL, a Vd of 1.5 L/kg, a clearance of 13.8 mL/min/kg and a half-life of 78 min. In data set [1] (po, p.o. 10 mg/kg), the AUC was found to be 5900 ng·h/mL, the highest level (Cmax) was 2020 ng/mL and the time to peak (Tmax) is 0.67 h. The molecule further gave a F in data set [1] (p.o. 10 mg/kg) of 49%.
Consider `[2H]C([2H])([2H])NC(=O)c1nnc(NC(=O)C2CC2)cc1Nc1cccc(-c2cc(P(=O)(C3CC3)C3CC3)n(C)n2)c1OC` [Compound B41, 6-(cyclopropanecarboxamido)-4-((3-(5-(dicyclopropylphosphoryl)-1-methyl-1H-pyrazol-3-yl)-2-methoxyphenyl)amino)-N-(methyl-d3)pyridazine-3-carboxamide], for which, at hERG channel, the half-maximal inhibitory concentration (IC50) was above 30 µM and the “inhibition on hERG channel (in words)” value was “no inhibition”. In data set [1], the “plasma exposure and bioavailability” value was “good plasma exposure and bioavailability”. Moreover, in data set [1] (iv, i.v. 2 mg/kg), the AUC was determined as 2880 ng·h/mL, the Vd amounted to 1 L/kg, the clearance worked out at 11.6 mL/min/kg and the half-life is 60 min. Further, in data set [1] (po, p.o. 10 mg/kg), the exposure (AUC) came to 6900 ng·h/mL, the peak level (Cmax) was 1800 ng/mL and the Tmax amounted to 2.83 h. This molecule showed a F in data set [1] (p.o. 10 mg/kg) of 48%.
